The results in this text go back to patent US7432226B2, “Herbicidally active composition” (Bayer CropScience GmbH, priority 2003, dated 2008).

What all share (details): in vivo
The test system of one series is Corn, cultivar “Lorenzo”. The series can be described thus: Herbicidal post-emergence action, damage to crop plants: corn. The protocol: (§1) Herbicidal Post-emergence Action
(§2) Seeds of monocotyledonous and dicotyledonous weeds and of crop plants are placed in sandy loam soil in plastic pots, covered with soil and cultivated in a greenhouse under good growth conditions.
(§3) Three weeks after sowing, the test plants are treated at the 3-4-leaf stage.
(§4) Stated is the respective degree of damage to the crop plants and the reduction of the damage by the herbicide/safener combinations according to the invention in percent, compared with the herbicide applied alone.

Series [1] concerns Barley, cultivar “Baronesse”. The series can be described thus: Herbicidal post-emergence action, damage to crop plants: barley Baronesse. The protocol:
as §1, §2, §3, §4

The test system of series [2] is Wheat, cultivar “Kanzler”. In words: Herbicidal post-emergence action, damage to crop plants: wheat Kanzler. Here is the method: as §1, §2, §3, §4
For the next series, the system named is Barley, cultivar “Duett”. In words: Herbicidal post-emergence action, damage to crop plants: barley Duett. The protocol: as §1, §2, §3, §4

As for `COC(=O)c1ccccc1S(=O)(=O)NC(=O)Nc1nc(C)nc(OC)n1` [herbicide A1.1, metsulfuron-methyl], the Degree of damage in the series on Corn, cultivar “Lorenzo” was found to be 50%; in series [1], 10%; in series [2] it was 10%.

As to `COC(=O)c1sccc1S(=O)(=O)NC(=O)Nc1nc(C)nc(OC)n1` [herbicide A2.1, thifensulfuron-methyl], the Degree of damage in the series with Corn, cultivar “Lorenzo” is recorded as 20%; in the series with Barley, cultivar “Duett” it was 20%; in series [2], 10%.

Regarding `COC(=O)c1ccccc1S(=O)(=O)NC(=O)N(C)c1nc(C)nc(OC)n1` [herbicide A3.1, tribenuron-methyl], the Degree of damage stood at 10% in the series with Corn, cultivar “Lorenzo” and 20% in series [2].

On to `COc1nc(C)nc(NC(=O)NS(=O)(=O)c2ccccc2Cl)n1` [herbicide A4.1, chlorsulfuron], for which the Degree of damage was found to be 70% in the series with Corn, cultivar “Lorenzo” and 10% in series [1].
